Test results from PMC10892984, “Novel Antineoplastic Inducers of Mitochondrial Apoptosis in Human Cancer Cells” (Molecules, 2024).
Values joined by “and” are separate entries in the source; they are usually repeats but may differ in a detail not shown here. Identical values can stand only once.

What was measured:
DU-145 = conditions: for TGI: DU-145, prostate cancer, mutant p53, 48 h
MALME-3M = conditions: 48 h; for TGI: MALME-3M, melanoma, wild-type p53
CCRF-CEM = conditions: for TGI: leukemia, mutant p53, 48 h
HCT-116 = conditions: for TGI: HCT-116, colon cancer, wild-type p53, 48 h
TK-10 = conditions: for TGI: TK-10, renal cancer, mutant p53, 48 h
OVCAR-4 = conditions: for TGI: OVCAR-4, ovarian cancer, mutant p53, 48 h
NCI-H522 = conditions: for TGI: NCI-H522, non-small-cell lung cancer, mutant p53, 48 h
SNB-19 = conditions: for TGI: SNB-19, CNS cancer (brain tumor), mutant p53, 48 h
MDA-MB-435 = conditions: for TGI: MDA-MB-435, melanoma, mutant p53, 48 h
MDA-MB-468 = conditions: for TGI: MDA-MB-468, breast cancer, mutant p53, 48 h
NCI-H460 = conditions: for TGI: NCI-H460, non-small-cell lung cancer, wild-type p53, 48 h
HT29 = conditions: for TGI: HT29, colon cancer, mutant p53, 48 h
HCC-2998 = conditions: for TGI: HCC-2998, colon cancer, mutant p53, 48 h
M14 = conditions: for TGI: M14, melanoma, mutant p53, 48 h
SW-620 = conditions: for TGI: SW-620, colon cancer, mutant p53, 48 h
MCF7 = conditions: for TGI: MCF7, breast cancer, wild-type p53, 48 h
HS 578T = conditions: 48 h; for TGI: HS 578T, breast cancer, mutant p53
SK-OV-3 = conditions: for TGI: SK-OV-3, ovarian cancer, no p53 protein expressed, 48 h
[1] = test system: 60 human cancer cell lines; conditions: for induction of cancer cell death (classification): NCI 60 panel overall; for Mean of Inhibition Data (MID) TGI, 10^MID: mean over all tested cell lines of the NCI 60 panel
Source text: The defined tumor inhibition criterion (GI50, TGI, or LC50) is recalculated in log10 expression, and the colored bars, which indicate then the sensitivity of the individual tumor cell line to the agent, are given in log10 units. […] The most important feature is at the bottom of the page: the MID (Mean of Inhibition Data) indicates the mean concentration for all tested cell lines required for the drug to reach the defined tumor inhibition criterion (GI50, TGI, or LC50). It is given in Log10GI50, Log10TGI, and Log10LC50. From those values, the corresponding MID is calculated. […] The MID can be transformed from logarithmic into linear concentrations by the formula: c = 10^MID.
The human tumor cell lines of the cancer screening panel are grown in RPMI-1640 medium containing 5% fetal bovine serum (FBS) and 2 mM L-glutamine. For a typical screening experiment, cells are inoculated into 96-well microtiter plates in 100 μL at plating densities ranging from 5000 to 40,000 cells/well, depending on the doubling time of individual cell lines. After cell inoculation, the microtiter plates are incubated at 37 °C, 5% CO2, 95% air, and 100% relative humidity for 24 h prior to the addition of experimental drugs. After 24 h, two plates of each cell line are fixed in situ with trichloroacetic acid (TCA) to represent a measurement of the cell population for each cell line at the time of drug addition (Tz). Experimental drugs are solubilized in dimethyl sulfoxide (DMSO) at 400-fold the desired final maximum test concentration and stored frozen prior to use. At the time of drug addition, an aliquot of frozen concentrate is thawed and diluted to twice the desired final maximum test concentration with a complete medium containing 50 μg/mL gentamicin. Additional four, 10-fold or ½ log serial dilutions are made to provide a total of five drug concentrations plus control. Aliquots of 100 μL of these different drug dilutions are added to the appropriate microtiter wells already containing 100 μL of the medium, resulting in the required final drug concentrations.
Following drug addition, the plates are incubated for an additional 48 h at 37 °C, 5% CO2, 95% air, and 100% relative humidity. For adherent cells, the assay is terminated by the addition of cold TCA. Cells are fixed in situ by the gentle addition of 50 μL of cold 50% (m/v) TCA (final concentration, 10% TCA) and incubated for 60 min at 4 °C. The supernatant is discarded, and the plates are washed five times with tap water and air dried. Sulforhodamine B (SRB) solution [100 μL at 0.4% (m/v) in 1% acetic acid] is added to each well, and plates are incubated for 10 min at room temperature. After staining, unbound dye is removed by washing five times with 1% acetic acid, and the plates are air dried. Bound stain is subsequently solubilized with 10 mM trizma® base [2-amino-2-(hydroxymethyl)-1,3-propandiol, tris base, trometamol], and the absorbance is read on an automated plate reader at a wavelength of λ = 515 nm. For suspension cells, the methodology is the same, except that the assay is terminated by fixing settled cells at the bottom of the wells by gently adding 50 μL of 80% TCA (final concentration, 16% TCA). Using the seven absorbance measurements [time zero, (Tz), control growth, (C), and test growth in the presence of the drug at the five concentration levels (Ti)], the percentage growth is calculated at each of the drug concentration levels. Percentage growth inhibition is calculated as:[(Ti − Tz)/(C − Tz)] × 100 for concentrations for which Ti ≥ Tz [(Ti − Tz)/Tz] × 100 for concentrations for which Ti < Tz
Three dose-response parameters are calculated for each experimental agent.

COLO 205 = conditions: for TGI: COLO 205, colon cancer, mutant p53, 48 h
MDA-MB-231 = conditions: for TGI: MDA-MB-231, breast cancer, mutant p53, 48 h
SF-268 = conditions: for TGI: SF-268, CNS cancer (brain tumor), mutant p53, 48 h
UACC-62 = conditions: for TGI: UACC-62, melanoma, wild-type p53, 48 h
RPMI-8226 = conditions: for TGI: RPMI-8226, leukemia, mutant p53, 48 h
ACHN = conditions: for TGI: renal cancer, wild-type p53, 48 h
SF-539 = conditions: for TGI: SF-539, CNS cancer (brain tumor), mutant p53, 48 h
NCI-H23 = conditions: for TGI: NCI-H23, non-small-cell lung cancer, mutant p53, 48 h
[2] = Homo sapiens, 48 h, read-out: LC50

COc1cc2c(c(OC)c1OC)-c1ccc(NNC(=S)N(Cc3cccc(C[N+](Cc4cccc(CNC56CC7CC(CC(C7)C5)C6)c4)(Cc4cccc(CNC56CC7CC(CC(C7)C5)C6)c4)Cc4cccc(CN(C(=S)NNc5ccc6c(cc5=O)C(NC(C)=O)CCc5cc(OC)c(OC)c(OC)c5-6)C56CC7CC(CC(C7)C5)C6)c4)c3)C34CC5CC(CC(C5)C3)C4)c(=O)cc1C(NC(C)=O)CC2 [Compound 3, [(bis{3-[(tricyclo[3.3.1.1^3,7]decan-1-ylamino)methyl]benzyl}ammonio)bis(methanediylbenzene-3,1-diylmethanediyl)]di-2-[(aS,7S)-7-(acetylamino)-1,2,3-trimethoxy-9-oxo-5,6,7,9-tetrahydrobenzo[a]heptalen-10-yl]-N-(tricyclo[3.3.1.1^3,7]decan-1-yl)hydrazinecarbothioamide chloride pentahydrate]
TGI (DU-145): 7.10 µM
TGI (MALME-3M): 3.04 µM
TGI (CCRF-CEM): 2.47 µM
TGI (HCT-116): 3.07 µM
TGI (TK-10): 8.35 µM
TGI (OVCAR-4): 8.94 µM
TGI (NCI-H522): 1.88 µM
TGI (SNB-19): 6.20 µM
TGI (MDA-MB-435): 3.50 µM
TGI (MDA-MB-468): 1.75 µM
TGI (NCI-H460): 3.79 µM
TGI (HT29): 2.81 µM
TGI (HCC-2998): 1.47 µM
TGI (M14): 2.26 µM
TGI (SW-620): 2.06 µM
TGI (MCF7): 3.44 µM
TGI (HS 578T): 6.76 µM
TGI (SK-OV-3): 7.51 µM
induction of cancer cell death (classification) [1]: tumoricidal
Mean of Inhibition Data (MID) TGI, 10^MID [1]: 4.571 µM and 4.57 µM
TGI (COLO 205): 1.52 µM
TGI (MDA-MB-231): 2.99 µM
TGI (SF-268): 6.54 µM
TGI (UACC-62): 6.38 µM
TGI (RPMI-8226): 1.76 µM
TGI (ACHN): 7.99 µM
TGI (SF-539): 4.30 µM
TGI (NCI-H23): 5.33 µM

c1cc(CNC23CC4CC(CC(C4)C2)C3)cc(C[N+](Cc2cccc(CNC34CC5CC(CC(C5)C3)C4)c2)(Cc2cccc(CNC34CC5CC(CC(C5)C3)C4)c2)Cc2cccc(CNC34CC5CC(CC(C5)C3)C4)c2)c1 (centres unmarked) [Compound 1, tetrakis{3-[(tricyclo[3.3.1.1^3,7]decan-1-ammonio)methyl]benzyl}ammonium pentachloride]
TGI (DU-145): 4.61 µM
GI50 (DU-145; Homo sapiens, DU-145, 48 h): 1.47 µM
CC50 (DU-145; Homo sapiens, DU-145, 48 h, read-out: LC50): 15.2 µM
GI50 (MALME-3M; Homo sapiens, Malme-3M): 0.839 µM
CC50 (MALME-3M; Homo sapiens, Malme-3M, read-out: LC50): 4.12 µM
TGI (MALME-3M): 1.86 µM
GI50 (CCRF-CEM; Homo sapiens, 48 h): 1.46 µM
CC50 (CCRF-CEM; [2]): > 50 µM
TGI (CCRF-CEM): > 50 µM
TGI (HCT-116): 2.01 µM
GI50 (HCT-116; Homo sapiens, HCT-116, 48 h): 0.728 µM
CC50 (HCT-116; Homo sapiens, HCT-116, 48 h, read-out: LC50): 6.47 µM
GI50 (TK-10; Homo sapiens, TK-10, 48 h): 1.85 µM
CC50 (TK-10; Homo sapiens, TK-10, 48 h, read-out: LC50): 21.5 µM
TGI (TK-10): 7.17 µM
GI50 (OVCAR-4; Homo sapiens, OVCAR-4, 48 h): 1.16 µM
CC50 (OVCAR-4; Homo sapiens, OVCAR-4, 48 h, read-out: LC50): 18.4 µM
TGI (OVCAR-4): 5.45 µM
GI50 (NCI-H522; Homo sapiens, NCI-H522, 48 h): 0.731 µM
CC50 (NCI-H522; Homo sapiens, NCI-H522, 48 h, read-out: LC50): 3.3 µM
TGI (NCI-H522): 1.55 µM
GI50 (SNB-19; Homo sapiens, SNB-19, 48 h): 1.92 µM
CC50 (SNB-19; Homo sapiens, SNB-19, 48 h, read-out: LC50): 19.9 µM
TGI (SNB-19): 7.27 µM
GI50 (MDA-MB-435; Homo sapiens, MDA-MB-435, 48 h): 0.825 µM
CC50 (MDA-MB-435; Homo sapiens, MDA-MB-435, 48 h, read-out: LC50): 6.5 µM
TGI (MDA-MB-435): 2.11 µM
GI50 (MDA-MB-468; Homo sapiens, MDA-MB-468, 48 h): 0.797 µM
CC50 (MDA-MB-468; Homo sapiens, MDA-MB-468, 48 h, read-out: LC50): 3.55 µM
TGI (MDA-MB-468): 1.68 µM
GI50 (NCI-H460; Homo sapiens, NCI-H460, 48 h): 1.19 µM
CC50 (NCI-H460; Homo sapiens, NCI-H460, 48 h, read-out: LC50): 17.9 µM
TGI (NCI-H460): 2.71 µM
TGI (HT29): 2.82 µM
GI50 (HT29; Homo sapiens, HT-29, 48 h): 0.857 µM
CC50 (HT29; Homo sapiens, HT-29, 48 h, read-out: LC50): 14.6 µM
TGI (HCC-2998): 5.31 µM
GI50 (HCC-2998; Homo sapiens, HCC 2998, 48 h): 1.22 µM
CC50 (HCC-2998; Homo sapiens, HCC 2998, 48 h, read-out: LC50): 22.6 µM
GI50 (M14; Homo sapiens, M14, 48 h): 0.803 µM
CC50 (M14; Homo sapiens, M14, 48 h, read-out: LC50): 6.82 µM
TGI (M14): 2.08 µM
GI50 (SW-620; Homo sapiens, SW-620, 48 h): 1.25 µM
CC50 (SW-620; Homo sapiens, SW-620, 48 h, read-out: LC50): 17.2 µM
TGI (SW-620): 3.95 µM
GI50 (MCF7; Homo sapiens, MCF7, 48 h): 1.07 µM
CC50 (MCF7; Homo sapiens, MCF7, 48 h, read-out: LC50): 45.8 µM
TGI (MCF7): 6.19 µM
TGI (HS 578T): 11.8 µM
GI50 (HS 578T; Homo sapiens, Hs-578T): 1.92 µM
CC50 (HS 578T; Homo sapiens, Hs-578T, read-out: LC50): > 50 µM
GI50 (SK-OV-3; Homo sapiens, SK-OV-3, 48 h): 5.11 µM
CC50 (SK-OV-3; Homo sapiens, SK-OV-3, 48 h, read-out: LC50): 25.5 µM
TGI (SK-OV-3): 11.4 µM
GI50 ([1]; Homo sapiens, read-out: Mean of Inhibition Data (MID) GI50, 10^MID): 1.29 µM
CC50 ([1]; Homo sapiens, read-out: Mean of Inhibition Data (MID) LC50, 10^MID): 16.6 µM
induction of cancer cell death (classification) [1]: tumoricidal
Mean of Inhibition Data (MID) TGI, 10^MID [1]: 4.677 µM
TGI (COLO 205): 3.13 µM
GI50 (COLO 205; Homo sapiens, COLO 205, 48 h): 1.09 µM
CC50 (COLO 205; Homo sapiens, COLO 205, 48 h, read-out: LC50): 24.8 µM
GI50 (MDA-MB-231; Homo sapiens, MDA-MB-231, 48 h): 2.09 µM
CC50 (MDA-MB-231; Homo sapiens, MDA-MB-231, 48 h, read-out: LC50): 22.7 µM
TGI (MDA-MB-231): 7.41 µM
GI50 (SF-268; Homo sapiens, SF-268, 48 h): 1.53 µM
CC50 (SF-268; Homo sapiens, SF-268, 48 h, read-out: LC50): 30.8 µM
TGI (SF-268): 5.41 µM
GI50 (UACC-62; Homo sapiens, UACC-62, 48 h): 1.16 µM
CC50 (UACC-62; Homo sapiens, UACC-62, 48 h, read-out: LC50): 14.2 µM
TGI (UACC-62): 3.68 µM
GI50 (RPMI-8226; Homo sapiens, RPMI-8226, 48 h): 1.32 µM
CC50 (RPMI-8226; Homo sapiens, RPMI-8226, 48 h, read-out: LC50): > 50 µM
TGI (RPMI-8226): 3.99 µM
GI50 (ACHN; Homo sapiens, 48 h): 0.874 µM
CC50 (ACHN; [2]): 5.55 µM
TGI (ACHN): 2.14 µM
GI50 (SF-539; Homo sapiens, SF-539, 48 h): 1.01 µM
CC50 (SF-539; Homo sapiens, SF-539, 48 h, read-out: LC50): 7.59 µM
TGI (SF-539): 2.48 µM
GI50 (NCI-H23; Homo sapiens, NCI-H23, 48 h): 1.53 µM
CC50 (NCI-H23; Homo sapiens, NCI-H23, 48 h, read-out: LC50): 28.2 µM
TGI (NCI-H23): 6.36 µM
